Experimental data: PubChem BioAssay AID1320 (NMMLSC, 2008)
The source made the active and inactive calls. The rule behind the calls is not given here.

Target: Bcl-2-related protein A1 (Homo sapiens) (UniProt Q16548)
Assay: inhibitors of Bim binding to Bfl-1, dose response, biochemical, multiplexed, bead-based flow cytometry (AID 1320); note: test concentration not given here
Details: Bim peptide-Bfl-1 binding, fluorescence

Sequence of Bcl-2-related protein A1 (Homo sapiens) (Q16548 whole entry, looked up): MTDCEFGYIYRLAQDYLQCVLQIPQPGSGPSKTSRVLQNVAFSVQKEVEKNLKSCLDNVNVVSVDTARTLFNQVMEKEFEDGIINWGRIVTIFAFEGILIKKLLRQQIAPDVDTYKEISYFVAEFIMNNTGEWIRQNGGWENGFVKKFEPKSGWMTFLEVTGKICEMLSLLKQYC

percent span (inhibition) | SMILES
inactive | COc1cccc(C(=O)/C=C/Nc2ccc(S(=O)(=O)Nc3onc(C)c3C)cc2)c1
inactive | O=C(O)/C=C/C(=O)NNC(=O)c1ccc(Br)cc1
inactive | COc1cccc(N2CC(C(=O)Nc3nnc(SCC(=O)c4ccccc4)s3)CC2=O)c1 (configuration not stated)
inactive | O=C(Nc1nccs1)c1ccc(COc2ccc(F)cc2)o1
inactive | Cc1cccc(-c2nnc3n2N=C(c2ccccc2)CS3)c1
inactive | Cc1ccc(Nc2nc(-c3ccccc3)c(CC(=O)O)s2)cc1
inactive | O=C(CNC(=O)c1ccc(S(=O)(=O)N2CCCC2)cc1)N/N=C/c1ccc(Cl)cc1Cl
inactive | Cc1ccccc1-c1nc(-c2ccc(NC(=O)c3ccc4c(c3)OCO4)cc2)no1
inactive | CCOC(=O)N1CCC(c2cc(=O)n(-c3ccccc3)[nH]2)CC1
inactive | CN(CC(=O)O/N=C(\N)c1ccc([N+](=O)[O-])cc1)S(=O)(=O)c1ccccc1
inactive | O=C1N/C(=C/c2cccn2-c2ccccc2)C(=O)N1Cc1ccc(F)cc1
inactive | O=C1C=C(Nc2ccccc2)C(=O)c2ccccc21
inactive | Cc1c(Cc2ccccc2)sc(N)c1C(N)=O
inactive | CCOc1ccc(C(=O)Nc2nnc(NC(=S)Nc3ccccc3)s2)cc1
inactive | COc1ccc(C)cc1-n1c(=O)c2ccccc2c2ccccc2c1=O
inactive | Cc1cc(/C=C(/C#N)C(=O)Nc2ccc(Cl)cc2)c(C)n1-c1cccnc1
inactive | COc1cc(/C=C2\SC(=S)NC2=O)ccc1OS(=O)(=O)c1ccccc1
inactive | Cn1cccc1CC(=O)N/N=C\c1ccccc1
inactive | CCn1c(SCC(=O)Nc2ccc(C)cc2)nnc1-c1ccc(O)cc1
inactive | CCN1CCN(c2ccc(NC(=O)c3cccc4ncccc34)cc2)CC1
inactive | Cc1ccc(NN2C(=O)C=CC2=O)cc1
inactive | O=C(O)CC1S/C(=N/N=C/C=C/c2ccccc2[N+](=O)[O-])NC1=O (configuration not stated)
inactive | C/C(=N\NC(=O)Cc1cccn1C)c1ccc2ccccc2c1
inactive | Cc1ccc(C(=O)N/N=C2/NC(=O)CC(C(=O)Nc3ccccc3)S2)cc1 (configuration not stated)

Further lines, the molecule ahead of its results:

SMILES | percent span (inhibition)
Brc1ccc2ncnc(Nc3ccc(N4CCOCC4)cc3)c2c1 | inactive
O=C(NCc1ccccc1)C(=O)Nc1nc(C23CC4CC(CC(C4)C2)C3)cs1 | inactive
COc1ccc(OC)c(-n2c(=O)c3ccccc3c3ccccc3c2=O)c1 | inactive
Nc1ccc(-c2cn3cccnc3n2)cc1 | inactive
COc1cccc2c(SCC(=O)N/N=C/c3ccc(O)cc3O)cc(C)nc12 | inactive
Nc1cccc(-c2cn3cccnc3n2)c1 | inactive
CCC(CC)C(=O)Nc1cccc(SC)c1 | inactive
COc1ccc(NC(=O)COc2ncnc3ccccc23)cc1S(=O)(=O)N1CCOCC1 | inactive
O=C(COC(=O)c1ccccn1)NC1CCCCC1 | inactive
Cc1csc(Nc2ccccc2C(F)(F)F)n1 | inactive
COc1ccc(CCNC(=O)c2cc(-c3ccccn3)nc3c(Cl)cccc23)cc1OC | inactive
Clc1nc2ccccc2cc1/C=N/Nc1nc2ccccc2[nH]1 | inactive
OC(COc1ccc2cc(Br)ccc2c1)CN1CCOCC1 (configuration not stated) | inactive
COc1cccc(/C=N/Nc2nn3cnnc3c3ccccc23)c1 | inactive
CCOc1c(Cl)cc(CNc2ccc(N3CCCC3)cc2)cc1OC | inactive
O=C(OCc1cnc(Cl)s1)c1cccc(Cl)c1Cl | inactive
O=C(O)CCN1C(=O)/C(=C\c2ccc(-c3nc4ccccc4s3)o2)SC1=S | inactive
CCc1ccc(NC(=O)CC2NCCNC2=O)cc1 (configuration not stated) | inactive
Cc1nc2ncccn2c1-c1csc(Nc2ccc(O)cc2)n1 | inactive
CC(=O)Nc1ccc2nc(CN3CCN(CC(C)C)C(CCO)C3)ccc2c1 (configuration not stated) | inactive
COCCn1nnnc1CN(Cc1ccco1)Cc1cc2cc3c(cc2[nH]c1=O)OCO3 | inactive
O=C(COc1ccc(Br)cc1CNC1CCCCC1)NCCc1ccccc1 | inactive
COCCNc1nc(=S)[nH]c2cc(OC)c(OC)cc12 | inactive
Clc1ccc(N=c2ssnc2Cl)nc1 | inactive

SMILES | percent span (inhibition)
Cc1cccc(Nc2nc(-c3ccncc3)cs2)c1 | inactive
COc1ccc(-c2noc(COc3ccc4c(c3)OCO4)n2)cc1OC | inactive
CC(C)(C)C1CCC(=NNC(=O)c2cc3c(s2)CCCC3)CC1 (configuration not stated) | inactive
CCOc1cc(CNc2ccc(N3CCCCC3)cc2)cc(Br)c1OCC(=O)NC(C)(C)C | inactive
O=C(CCc1ccccc1)N1CCN(c2ccccn2)CC1 | inactive
Cc1ccc(C)c(N2CCN(C(=S)Nc3ccc4nc(N5CCN(C)CC5)cc(C)c4c3)CC2)c1 | inactive
Cc1cccn2c(=O)c3cc(C(N)=S)c(=N)n(CCCN4CCOCC4)c3nc12 | inactive
C#CCOCCOCCOCCNc1nc(N2CCN(C(=O)[C@H](CCCCN)n3cc(CCCC)nn3)CC2)nc(N2CCN(C(=O)[C@H](Cc3ccc(O)cc3)n3cc(CCO)nn3)CC2)n1 | inactive
COc1ccc(OC)c(Nc2ccc(C(=O)O)cc2[N+](=O)[O-])c1 | inactive
COc1cc2[nH]c(=S)nc(NCCCOC(C)C)c2cc1OC | inactive
CCSc1ncnc2sc(C)c(C)c12 | inactive
CCCC1(C(=O)OCC)NC(c2cc(OC)c(OC)c(OC)c2)C2C(=O)N(CC)C(=O)C21 (configuration not stated) | inactive
CCNC(=O)N1c2ccc(OCC)cc2C(C)=CC1(C)C | inactive
NNC(=O)COc1ccccc1F | inactive
Cc1ccc(OCC(=O)NCc2ccccn2)c(Br)c1 | inactive
Cc1[nH]n(C(N)=S)c(=O)c1N=Nc1ccc(S(=O)(=O)N2CCCCCC2)cc1 | inactive
Cc1cnnn1-c1ccc(C(=O)CCl)cc1 | inactive
COc1cccc2c(SCC(=O)N/N=C/c3ccc(O)c(O)c3)cc(C)nc12 | inactive
Cc1cc(OCc2cn3cccnc3n2)ccc1Cl | inactive
O=C(CSc1nnc(-c2ccccc2)c(-c2ccccc2)n1)N1CCc2ccccc21 | inactive
CCOc1ccc(CNc2ccc(N3CCCC3)cc2)cc1 | inactive
COc1ccc(C2CC(=O)C3=C(C2)Nc2ccccc2NC3c2coc3ccccc3c2=O)cc1OC (configuration not stated) | inactive
COc1cc(C=Nc2cccc(C)c2)c(O)c([N+](=O)[O-])c1 | inactive
CCCc1nnc2n1N=C(c1ccc(-c3cc(Cl)ccc3Cl)o1)CS2 | inactive
